The structures appear in SMILES notation.

What is called Ki is a measure of affinity in units of concentration, obtained from inhibition or displacement.

Sequence of human IRAK4 (Q9NWZ3 whole entry, the tested form may be a part): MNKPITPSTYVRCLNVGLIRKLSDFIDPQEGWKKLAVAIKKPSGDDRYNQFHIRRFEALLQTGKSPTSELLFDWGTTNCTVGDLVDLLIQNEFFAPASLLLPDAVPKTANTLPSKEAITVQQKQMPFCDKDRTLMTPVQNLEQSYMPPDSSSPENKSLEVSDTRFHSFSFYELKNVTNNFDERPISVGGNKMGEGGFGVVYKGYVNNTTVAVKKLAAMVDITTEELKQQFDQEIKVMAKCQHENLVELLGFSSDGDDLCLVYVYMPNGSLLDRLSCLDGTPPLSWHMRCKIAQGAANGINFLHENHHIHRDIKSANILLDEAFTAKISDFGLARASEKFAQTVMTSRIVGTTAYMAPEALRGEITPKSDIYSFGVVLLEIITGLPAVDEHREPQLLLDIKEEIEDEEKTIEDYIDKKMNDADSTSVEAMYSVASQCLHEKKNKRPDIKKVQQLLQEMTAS

The experiment addresses human IRAK4 (Homo sapiens (Human), UniProt Q9NWZ3). The experiment is described as follows: IRAK4 kinase inhibition, Transcreener fluorescence polarization ADP assay. To be noted: recombinant full-length His6-IRAK4; 125 uM ATP; 90 min; Ki computed using ATP Km 642 uM. The class given is biochemical. Here is the method: Compounds were assayed for inhibition of human IRAK4 and IRAK1 catalytic activity using recombinant enzyme produced from insect cells. Full-length IRAK4 protein, carrying an N-terminal His6-Tag, was obtained from Life Technologies (Carlsbad, Calif., USA). The IRAK1 construct was produced internally and was comprised of IRAK1 residues Arg194 to Ser712, preceded by an NH2-terminal His6 tag and the coding sequence for glutathione-S-transferase.
(In general: Fluorescence polarisation rises when a labelled molecule tumbles more slowly, as on binding a larger partner.)
For `CC(C)(O)[C@]1(C)Cc2cc(NC(=O)c3cnn4cccnc34)c(N3CCN(CC(F)F)CC3)cc2O1` [Example 361, (S)—N-(6-(4-(2,2-Difluoroethyl)piperazin-1-yl)-2-(2-hydroxypropan-2-yl)-2-methyl-2,3-dihydrobenzofuran-5-yl)pyrazolo[1,5-a]pyrimidine-3-carboxamide], the inhibitory constant (Ki) was found to be 9.2 nM. Turning to `CC1(COC(F)F)Cc2cc(NC(=O)c3cnn4cccnc34)c(N3CCN(CC(F)F)CC3)cc2O1` (stereo not drawn) [Example 362, N-(6-(4-(2,2-difluoroethyl)piperazin-1-yl)-2-((difluoromethoxy)methyl)-2-methyl-2,3-dihydrobenzofuran-5-yl)pyrazolo[1,5-a]pyrimidine-3-carboxamide], the Ki was 6.7 nM. As for `CC(C)(O)C1(C)Cc2cc(NC(=O)c3cnn4cccnc34)c(N3CCC(CO)CC3)cc2O1` (stereo not drawn) [Example 363, N-(6-(4-(hydroxymethyl)piperidin-1-yl)-2-(2-hydroxypropan-2-yl)-2-methyl-2,3-dihydrobenzofuran-5-yl)pyrazolo[1,5-a]pyrimidine-3-carboxamide], the figure is 5.3 nM.

Turning to `CC1(C(F)F)Cc2cc(NC(=O)c3cnn4cccnc34)c(N3CCN(CC(F)F)CC3)cc2O1` (stereo not drawn) [Example 364, N-(6-(4-(2,2-Difluoroethyl)piperazin-1-yl)-2-(difluoromethyl)-2-methyl-2,3-dihydrobenzofuran-5-yl)pyrazolo[1,5-a]pyrimidine-3-carboxamide], the Ki amounted to 3.7 nM. Consider `C[C@]1(CC(F)F)Cc2cc(NC(=O)c3cnn4cccnc34)c(N3CCOCC3)cc2O1` [Example 367, N-[(2R)-2-(2,2-difluoroethyl)-2-methyl-6-morpholino-3H-benzofuran-5-yl]pyrazolo[1,5-a]pyrimidine-3-carboxamide], for which the Ki is 5.8 nM.

Consider `O=C(Nc1cc2c(cc1N1CCOCC1)OC1(CCN(CCO)CC1)C2)c1cnn2cccnc12` [Example 369, N-[1′-(2-Hydroxyethyl)-6-morpholino-spiro[3H-benzofuran-2,4′-piperidine]-5-yl]pyrazolo[1,5-a]pyrimidine-3-carboxamide], for which the inhibitory constant (Ki) was 6.8 nM. As for `O=C(Nc1cc2c(cc1N1CCOCC1)OC1(CCN(CC(F)F)CC1)C2)c1cnn2cccnc12` [Example 370, N-[1′-(2,2-difluoroethyl)-6-morpholino-spiro[3H-benzofuran-2,4′-piperidine]-5-yl]pyrazolo[1,5-a]pyrimidine-3-carboxamide], the figure is 5.8 nM; as for `CN1CCC2(CC1)Cc1cc(NC(=O)c3cnn4cccnc34)c(N3CCC(CO)CC3)cc1O2` [Example 371, N-(6-(4-(Hydroxymethyl)piperidin-1-yl)-1′-methyl-3H-spiro[benzofuran-2,4′-piperidin]-5-yl)pyrazolo[1,5-a]pyrimidine-3-carboxamide], 1.4 nM; as for `CC(C)N1CCC2(CC1)Cc1cc(NC(=O)c3cnn4cccnc34)c(N3CCOCC3)cc1O2` [Example 372, N-(1′-isopropyl-6-morpholino-spiro[3H-benzofuran-2,4′-piperidine]-5-yl)pyrazolo[1,5-a]pyrimidine-3-carboxamide], 13 nM. Next, `CN1CCC2(CC1)Cc1cc(NC(=O)c3cnn4cccnc34)c(N3CCN(CC(N)=O)CC3)cc1O2` [Example 373, N-(6-(4-(2-Amino-2-oxoethyl)piperazin-1-yl)-1′-methyl-3H-spiro[benzofuran-2,4′-piperidin]-5-yl)pyrazolo[1,5-a]pyrimidine-3-carboxamide]: 1.7 nM; `CC(=O)N1CCC2(CC1)Cc1cc(NC(=O)c3cnn4cccnc34)c(N3CCN(CC(N)=O)CC3)cc1O2` [Example 374, N-(1′-Acetyl-6-(4-(2-amino-2-oxoethyl)piperazin-1-yl)-3H-spiro[benzofuran-2,4′-piperidin]-5-yl)pyrazolo[1,5-a]pyrimidine-3-carboxamide]: 2 nM. Take `O=C(CN1CCN(c2cc3c(cc2NC(=O)c2cnn4cccnc24)CC2(CCNCC2)O3)CC1)NC1CC1` [Example 375, N-(6-(4-(2-(Cyclopropylamino)-2-oxoethyl)piperazin-1-yl)-3H-spiro[benzofuran-2,4′-piperidin]-5-yl)pyrazolo[1,5-a]pyrimidine-3-carboxamide]: the Ki was 47 nM. Next, `CN1CCC2(CC1)Cc1cc(NC(=O)c3cnn4cccnc34)c(N3CCN(CC(=O)NC4CC4)CC3)cc1O2` [Example 376, N-(6-(4-(2-(Cyclopropylamino)-2-oxoethyl)piperazin-1-yl)-1′-methyl-3H-spiro[benzofuran-2,4′-piperidin]-5-yl)pyrazolo[1,5-a]pyrimidine-3-carboxamide]: 46 nM. In the case of `O=C(Nc1cc2c(cc1OCC(F)F)OC1(CCNCC1)C2)c1cnn2cccnc12` [Example 377, N-(6-(2,2-Difluoroethoxy)-3H-spiro[benzofuran-2,4′-piperidin]-5-yl)pyrazolo[1,5-a]pyrimidine-3-carboxamide], the Ki stood at 11 nM.

`CN1CCC2(CC1)Cc1cc(NC(=O)c3cnn4cccnc34)c(OCC(F)F)cc1O2` [Example 378, N-(6-(2,2-difluoroethoxy)-1′-methyl-3H-spiro[benzofuran-2,4′-piperidin]-5-yl)pyrazolo[1,5-a]pyrimidine-3-carboxamide]: the Ki was determined as 7.3 nM.

With `CNc1cnc2c(C(=O)Nc3cc4c(cc3N3CCN(CC(F)F)CC3)OC(C)(C)C4)cnn2c1` [Example 379, N-[6-[4-(2,2-difluoroethyl)piperazin-1-yl]-2,2-dimethyl-3H-benzofuran-5-yl]-6-(methylamino)pyrazolo[1,5-a]pyrimidine-3-carboxamide], the inhibition constant Ki turned out to be 5.1 nM.

On to `CNc1cnc2c(C(=O)Nc3cc4c(cc3N3CCOCC3)OC3(CCN(C)CC3)C4)cnn2c1` [Example 380, N-(1′-methyl-6-morpholino-3H-spiro[benzofuran-2,4′-piperidin]-5-yl)-6-(methylamino)pyrazolo[1,5-a]pyrimidine-3-carboxamide], for which the Ki turned out to be 8.1 nM.

With `CNc1cnc2c(C(=O)Nc3cc4c(cc3N3CCN(CC(F)F)CC3)O[C@](C)(CO)C4)cnn2c1` [Example 381, (S)-N-(6-(4-(2,2-difluoroethyl)piperazin-1-yl)-2-(hydroxymethyl)-2-methyl-2,3-dihydrobenzofuran-5-yl)-6-(methylamino)pyrazolo[1,5-a]pyrimidine-3-carboxamide], the Ki worked out at 3 nM. As for `CNc1cnc2c(C(=O)Nc3cc4c(cc3N3CCN(CC(F)F)CC3)O[C@@](C)(CO)C4)cnn2c1` [Example 382, (R)-N-(6-(4-(2,2-difluoroethyl)piperazin-1-yl)-2-(hydroxymethyl)-2-methyl-2,3-dihydrobenzofuran-5-yl)-6-(methylamino)pyrazolo[1,5-a]pyrimidine-3-carboxamide], the Ki is 4 nM.

As for `CNc1cnc2c(C(=O)Nc3cc4c(cc3N3CCN(CC(F)F)CC3)OC3(CCOCC3)C4)cnn2c1` [Example 383, N-(6-(4-(2,2-difluoroethyl)piperazin-1-yl)-2′,3′,5′,6′-tetrahydro-3H-spiro[benzofuran-2,4′-pyran]-5-yl)-6-(methylamino)pyrazolo[1,5-a]pyrimidine-3-carboxamide], the Ki was determined as 7.6 nM. Take `CC1(C)Cc2cc(NC(=O)c3cnn4cccnc34)c(C3CC3)cc2O1` [Example 384, N-(6-Cyclopropyl-2,2-dimethyl-3H-benzofuran-5-yl)pyrazolo[1,5-a]pyrimidine-3-carboxamide]: the Ki stood at 37 nM.

Source of the values: patent US10988478B1, “Pyrazolo[1,5a]pyrimidine derivatives as IRAK4 modulators” (Genentech, Inc., priority 2015, dated 2021).
